Data on 16 molecules can be found in patent US20250320213A1, “Nitrogen-Containing Heterocyclic Compounds” (Pfizer Inc., priority 2024, published 2025).

The structures appear in SMILES notation.

Experiment [1] concerns CCL17 secretion in peripheral human whole blood. In words: Human Whole Blood (HWB) CCL17 TR-FRET Assay (IL-13 stimulated CCL17 secretion). Type of experiment: cell-based. The conditions noted are these: Homo sapiens, 48 h, human whole blood, 10 ng/mL IL13, 48 hours. The gist of the method: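 Measured here: CCL17 in serum by TR-FRET (665/615 nm) after overnight (16 h) room-temperature detection. The blood, heparinized and compound-treated for 2 h, received IL-13 at 10 ng/mL final and was cultured 48 h at 37 °C.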

In experiment [2] the target is T1, STAT6 (Homo sapiens, UniProt P42226).
T1 construct: stably transfected HaCaT keratinocyte cell line, which expresses NanoLuc luciferase reporter gene under the transcriptional control of the STAT6 responsive promoter; endogenous in cells; host or cells: HaCaT keratinocyte reporter cell line (stably transfected with a NanoLuc reporter)
T1 sequence (P42226 1-847): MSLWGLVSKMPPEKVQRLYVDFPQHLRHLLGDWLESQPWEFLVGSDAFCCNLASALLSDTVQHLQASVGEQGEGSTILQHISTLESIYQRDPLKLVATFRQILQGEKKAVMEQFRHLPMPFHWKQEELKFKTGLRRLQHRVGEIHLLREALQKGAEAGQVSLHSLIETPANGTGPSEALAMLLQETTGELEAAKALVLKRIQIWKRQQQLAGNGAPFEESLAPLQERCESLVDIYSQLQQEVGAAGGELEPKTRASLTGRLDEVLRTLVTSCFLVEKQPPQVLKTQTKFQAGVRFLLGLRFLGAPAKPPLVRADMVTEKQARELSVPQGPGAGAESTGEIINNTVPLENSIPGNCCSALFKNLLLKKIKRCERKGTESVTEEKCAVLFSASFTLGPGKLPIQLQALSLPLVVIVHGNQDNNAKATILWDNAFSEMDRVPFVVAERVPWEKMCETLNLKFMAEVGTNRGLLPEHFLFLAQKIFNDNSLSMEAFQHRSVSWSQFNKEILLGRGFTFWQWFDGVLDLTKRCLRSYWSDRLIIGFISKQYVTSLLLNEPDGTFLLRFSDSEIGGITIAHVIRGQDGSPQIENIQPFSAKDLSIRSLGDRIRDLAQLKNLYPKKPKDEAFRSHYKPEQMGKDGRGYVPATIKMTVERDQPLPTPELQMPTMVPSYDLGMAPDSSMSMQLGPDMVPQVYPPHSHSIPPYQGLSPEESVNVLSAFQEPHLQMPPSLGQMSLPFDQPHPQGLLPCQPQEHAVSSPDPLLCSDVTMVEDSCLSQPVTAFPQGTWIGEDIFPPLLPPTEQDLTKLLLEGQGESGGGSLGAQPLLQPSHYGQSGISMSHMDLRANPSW
In words: STAT6 Reporter Luciferase Assay (IL-13 stimulated HaCaT keratinocyte NanoLuc reporter cells). Type of experiment: cell-based. The conditions noted are these: IL-13 stimulated HaCaT STAT6 NanoLuc reporter cells; read-out: Reporter EC50. Summed up: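 Luminescence from a NanoLuc reporter driven by the STAT6-responsive IL-13Ra2 promoter in HaCaT keratinocytes serves as the read-out. Compounds are given 2 h before a 4 h stimulation with 0.12 nM IL-13.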

`CC(C)n1nc(C(=O)NCc2ccc(NC(=O)N3CCC(F)(F)C3)cc2)c2c1[C@@H](C)CN(c1ccc(C(=O)N(C)C)cn1)C2` [Example 590, (S)-N-(4-(3,3-difluoropyrrolidine-1-carboxamido)benzyl)-5-(5-(dimethylcarbamoyl)pyridin-2-yl)-1-isopropyl-7-methyl-4,5,6,7-tetrahydro-1H-pyrazolo[4,3-c]pyridine-3-carboxamide] showed a half-inhibitory concentration (IC50) in experiment [1] of 10 nM. Besides, the half-maximal effective concentration (EC50) in experiment [2] came out at 0.4 nM.

In experiment [1], `CC(C)n1nc(C(=O)NCc2ccc(NC(=O)N3CCC3)cc2)c2c1[C@@H](C)CN(c1ccc(C(=O)N(C)C)cn1)C2` [Example 591, (S)-N-(4-(azetidine-1-carboxamido)benzyl)-5-(5-(dimethylcarbamoyl)pyridin-2-yl)-1-isopropyl-7-methyl-4,5,6,7-tetrahydro-1H-pyrazolo[4,3-c]pyridine-3-carboxamide] returned an IC50 of 10 nM. Also, the EC50 in experiment [2] stood at 1 nM.

Take `CC(C)n1nc(C(=O)NCc2ccc(NC(=O)N3CCC(C)(O)CC3)cc2)c2c1[C@@H](C)CN(c1ccc(C(=O)N(C)C)cn1)C2` [Example 592, (S)-5-(5-(dimethylcarbamoyl)pyridin-2-yl)-N-(4-(4-hydroxy-4-methylpiperidine-1-carboxamido)benzyl)-1-isopropyl-7-methyl-4,5,6,7-tetrahydro-1H-pyrazolo[4,3-c]pyridine-3-carboxamide]: the IC50 in experiment [1] turned out to be 9 nM. For the same molecule, the concentration giving a half-maximal response (EC50) in experiment [2] worked out at 1 nM.

The molecule `CC(C)n1nc(C(=O)NCc2ccc(NC(=O)N3CCC(C)(C#N)CC3)cc2)c2c1[C@@H](C)CN(c1ccc(C(=O)N(C)C)cn1)C2` [Example 593, (S)-N-(4-(4-cyano-4-methylpiperidine-1-carboxamido)benzyl)-5-(5-(dimethylcarbamoyl)pyridin-2-yl)-1-isopropyl-7-methyl-4,5,6,7-tetrahydro-1H-pyrazolo[4,3-c]pyridine-3-carboxamide] had an IC50 in experiment [1] of 12 nM. Further, the 50% effective concentration (EC50) in experiment [2] came out at 1 nM.

Take `CC(C)n1nc(C(=O)NCc2ccc(NC(=O)N3CCN(C)CC3)cc2)c2c1[C@@H](C)CN(c1ccc(-n3ccccc3=O)cc1)C2` [Example 594, (S)-1-isopropyl-7-methyl-N-(4-(4-methylpiperazine-1-carboxamido)benzyl)-5-(4-(2-oxopyridin-1(2H)-yl)phenyl)-4,5,6,7-tetrahydro-1H-pyrazolo[4,3-c]pyridine-3-carboxamide]: inhibition in experiment [1] was half-maximal at 25 nM (IC50). In addition, in experiment [2], the EC50 came out at 2 nM.

The molecule `CC(C)n1nc(C(=O)NCc2ccc(NC(=O)N3CC4(CNC4)C3)c(F)c2)c2c1[C@@H](C)CN(c1ccc(C(=O)N(C)C)cc1)C2` [Example 595, (S)-5-(4-(dimethylcarbamoyl)phenyl)-N-(3-fluoro-4-(2,6-diazaspiro[3.3]heptane-2-carboxamido)benzyl)-1-isopropyl-7-methyl-4,5,6,7-tetrahydro-1H-pyrazolo[4,3-c]pyridine-3-carboxamide] showed an IC50 in experiment [1] of 83 nM. Further, the EC50 in experiment [2] was 64 nM.

In the case of `CC(C)n1nc(C(=O)NCc2ccc(NC(=O)N3CCNCC3)c(Cl)c2)c2c1[C@@H](C)CN(c1ccc(C(=O)N(C)C)cc1)C2` [Example 596, (S)-N-(3-chloro-4-(piperazine-1-carboxamido)benzyl)-5-(4-(dimethylcarbamoyl)phenyl)-1-isopropyl-7-methyl-4,5,6,7-tetrahydro-1H-pyrazolo[4,3-c]pyridine-3-carboxamide], 45 nM corresponded to half-maximal inhibition in experiment [1] (IC50). In addition, the EC50 in experiment [2] was found to be 3 nM.

In experiment [1], `CNC1CN(C(=O)Nc2ccc(CNC(=O)c3nn(C(C)C)c4c3CN(c3ccc(C(=O)N(C)C)cc3)C[C@@H]4C)cc2F)C1` [Example 597, (S)-5-(4-(dimethylcarbamoyl)phenyl)-N-(3-fluoro-4-(3-(methylamino)azetidine-1-carboxamido)benzyl)-1-isopropyl-7-methyl-4,5,6,7-tetrahydro-1H-pyrazolo[4,3-c]pyridine-3-carboxamide] yielded a half-inhibitory concentration (IC50) of 28 nM. For the same molecule, the EC50 in experiment [2] turned out to be 4 nM.

`CC(C)n1nc(C(=O)NCc2ccc(NC(=O)N(C)CC(F)F)cc2)c2c1[C@@H](C)CN(c1ccc(C(=O)N(C)C)cn1)C2` [Example 598, (S)-N-(4-(3-(2,2-difluoroethyl)-3-methylureido)benzyl)-5-(5-(dimethylcarbamoyl)pyridin-2-yl)-1-isopropyl-7-methyl-4,5,6,7-tetrahydro-1H-pyrazolo[4,3-c]pyridine-3-carboxamide] had an IC50 in experiment [1] of 13 nM. In addition, the 50% effective concentration (EC50) in experiment [2] was determined as 1 nM.

In experiment [1], `CC(C)n1nc(C(=O)NCc2ccc(NC(=O)N3CC(F)(F)C3)cc2)c2c1[C@@H](C)CN(c1ccc(C(=O)N(C)C)cn1)C2` [Example 599, (S)-N-(4-(3,3-difluoroazetidine-1-carboxamido)benzyl)-5-(5-(dimethylcarbamoyl)pyridin-2-yl)-1-isopropyl-7-methyl-4,5,6,7-tetrahydro-1H-pyrazolo[4,3-c]pyridine-3-carboxamide] registered an IC50 of 12 nM. In addition, the EC50 in experiment [2] is 1 nM.

Consider `CC(C)n1nc(C(=O)NCc2ccc(C(=O)NC3CCN(C)CC3)cc2)c2c1[C@@H](C)CN(c1ccc(C(=O)N(C)C)cn1)C2` [Example 601, (S)-5-(5-(dimethylcarbamoyl)pyridin-2-yl)-1-isopropyl-7-methyl-N-(4-((1-methylpiperidin-4-yl)carbamoyl)benzyl)-4,5,6,7-tetrahydro-1H-pyrazolo[4,3-c]pyridine-3-carboxamide], for which, in experiment [1], inhibition was half-maximal at 2100 nM (IC50). Besides, in experiment [2], the concentration giving a half-maximal response (EC50) was found to be 312 nM.

In the case of `CC(C)n1nc(C(=O)NCc2ccc(NC(=O)N3CCC4(CC3)CCN4C)c(F)c2)c2c1[C@@H](C)CN(c1ccc(C(=O)N(C)C)cn1)C2` [Example 602, (S)-5-(5-(dimethylcarbamoyl)pyridin-2-yl)-N-(3-fluoro-4-(1-methyl-1,7-diazaspiro[3.5]nonane-7-carboxamido)benzyl)-1-isopropyl-7-methyl-4,5,6,7-tetrahydro-1H-pyrazolo[4,3-c]pyridine-3-carboxamide], inhibition in experiment [1] was half-maximal at 14 nM (IC50). Moreover, the EC50 in experiment [2] was found to be 1 nM.

The molecule `CC(C)n1nc(C(=O)NCc2ccc(NC(=O)N3CC4(CCN(C)C4)C3)c(F)c2)c2c1[C@@H](C)CN(c1ccc(C(=O)N(C)C)cn1)C2` [Example 603, (S)-5-(5-(dimethylcarbamoyl)pyridin-2-yl)-N-(3-fluoro-4-(6-methyl-2,6-diazaspiro[3.4]octane-2-carboxamido)benzyl)-1-isopropyl-7-methyl-4,5,6,7-tetrahydro-1H-pyrazolo[4,3-c]pyridine-3-carboxamide] displayed an IC50 in experiment [1] of 31 nM. The half-maximal effective concentration (EC50) in experiment [2] was determined as 3 nM.

The molecule `CC(C)n1nc(C(=O)NCc2ccc(NC(=O)N3CC4(CN(C)C4)C3)c(F)c2)c2c1[C@@H](C)CN(c1ccc(C(=O)N(C)C)cn1)C2` [Example 604, (S)-5-(5-(dimethylcarbamoyl)pyridin-2-yl)-N-(3-fluoro-4-(6-methyl-2,6-diazaspiro[3.3]heptane-2-carboxamido)benzyl)-1-isopropyl-7-methyl-4,5,6,7-tetrahydro-1H-pyrazolo[4,3-c]pyridine-3-carboxamide] returned an IC50 in experiment [1] of 29 nM. Moreover, in experiment [2], the concentration for a half-maximal effect (EC50) was 4 nM.

Regarding `CNC(=O)c1ccc(CNC(=O)c2nn(C(C)C)c3c2CN(c2ccc(C(=O)N(C)C)cc2)C[C@@H]3C)cc1` [Example 605, (S)-5-(4-(dimethylcarbamoyl)phenyl)-1-isopropyl-7-methyl-N-(4-(methylcarbamoyl)benzyl)-4,5,6,7-tetrahydro-1H-pyrazolo[4,3-c]pyridine-3-carboxamide], the half-maximal inhibitory concentration (IC50) in experiment [1] was 37 nM. Also, the EC50 in experiment [2] was 4 nM.

For `CC(C)n1nc(C(=O)NCc2ccc(NC(=O)N3CCN(C)CC3)c(F)c2)c2c1[C@@H](C)CN(c1ccc(C(=O)N(C)C)cn1)C2` [Example 606, (S)-5-(5-(dimethylcarbamoyl)pyridin-2-yl)-N-(3-fluoro-4-(4-methylpiperazine-1-carboxamido)benzyl)-1-isopropyl-7-methyl-4,5,6,7-tetrahydro-1H-pyrazolo[4,3-c]pyridine-3-carboxamide], half-maximal inhibition in experiment [1] (IC50) was put at 9 nM. For the same molecule, the EC50 in experiment [2] amounted to 1 nM.
